Results: PMC10289903 (Investigational New Drugs, 2023)
Like-named read-outs stand apart in the source and are kept apart here.

Tested on: patients with locally advanced or metastatic solid tumors
Description: This was a Phase Ib, multicenter, open-label, dose-finding clinical trial (NCT02610075). […] Three types of treatment schedules were investigated: cohorts bid 1, bid 2, qd 1.1, qd 2.1 and qd 3.1 received bid or qd treatment on a 5/9 schedule (5 days on treatment, followed by 9 days off) on a 14-day cycle. Cohorts qd 1.2, qd 2.2, and qd 3.2 received treatment on a 5/2 schedule (5 days on followed by 2 days off for 2 of 3 weeks) in a 21-day cycle. Cohorts qd 2.3 and qd 3.3 received treatment on a weekly 5/2 schedule in a 21-day cycle (Table 1). The highest dose level(s) at which less than one-third of evaluable patients (none of 3 patients or 1 of 6 patients) experienced a dose-limiting toxicity (DLT) was declared the MTD.
The per protocol analysis set was defined as a subset of the full analysis set, excluding subjects having an important protocol deviation, to be used for analyses of efficacy endpoints if appropriate.

With `C=CCn1c(=O)c2cnc(Nc3ccc(N4CCN(C)CC4)cc3)nc2n1-c1cccc(C(C)(C)O)n1` [adavosertib, Adavosertib] the “Treatment-related SAE: pneumonia” value (all cohorts (N=62)) was 2 [3.2%] n [%], the “Treatment-related SAE: thrombocytopenia” value (all cohorts (N=62)) was 1 [1.6%] n [%] and the “Abdominal pain (treatment-emergent AE)” value (bid 2: 150 mg bid 5/9 (n=6)) was 1 (16.7) n (%). The “Abdominal pain (treatment-related AE)” value (bid 2: 150 mg bid 5/9 (n=6)) was 0 n (%), the “Alanine aminotransferase increased (treatment-emergent AE)” value (“Alanine aminotransferase increased” for short) (bid 2: 150 mg bid 5/9 (n=6)) was 0 n (%) and the “Anemia (treatment-emergent AE)” value (bid 2: 150 mg bid 5/9 (n=6)) was 1 (16.7) n (%). For the same compound, the “Anemia (treatment-related AE)” value (bid 2: 150 mg bid 5/9 (n=6)) was 1 (16.7) n (%), the “Any AE (treatment-emergent)” value (bid 2: 150 mg bid 5/9 (n=6)) was 6 (100) n (%) and the “Any grade ≥ 3 AE” value (bid 2: 150 mg bid 5/9 (n=6)) was 5 (83.3) n (%). The “Any treatment-related AE” value (bid 2: 150 mg bid 5/9 (n=6)) was 6 (100) n (%), the “Any treatment-related grade ≥ 3 AE” value (bid 2: 150 mg bid 5/9 (n=6)) was 3 (50.0) n (%) and the “Asthenia (treatment-emergent AE)” value (bid 2: 150 mg bid 5/9 (n=6)) was 1 (16.7) n (%). The “Asthenia (treatment-related AE)” value (bid 2: 150 mg bid 5/9 (n=6)) was 0 n (%), the “Back pain (treatment-emergent AE)” value (bid 2: 150 mg bid 5/9 (n=6)) was 2 (33.3) n (%) and the “Constipation (treatment-emergent AE)” value (bid 2: 150 mg bid 5/9 (n=6)) was 2 (33.3) n (%). For the same compound, the “Constipation (treatment-related AE)” value (bid 2: 150 mg bid 5/9 (n=6)) was 1 (16.7) n (%), the “Cough (treatment-emergent AE)” value (bid 2: 150 mg bid 5/9 (n=6)) was 1 (16.7) n (%) and the “Decreased appetite (treatment-emergent AE)” value (bid 2: 150 mg bid 5/9 (n=6)) was 2 (33.3) n (%). For the same compound, the “Decreased appetite (treatment-related AE)” value (bid 2: 150 mg bid 5/9 (n=6)) was 2 (33.3) n (%), the “Dehydration (treatment-emergent AE)” value (bid 2: 150 mg bid 5/9 (n=6)) was 4 (66.7) n (%) and the “Dehydration (treatment-related AE)” value (bid 2: 150 mg bid 5/9 (n=6)) was 4 (66.7) n (%). The “Diarrhea (treatment-emergent AE)” value (bid 2: 150 mg bid 5/9 (n=6)) was 5 (83.3) n (%), the “Diarrhea (treatment-related AE)” value (bid 2: 150 mg bid 5/9 (n=6)) was 5 (83.3) n (%) and the “Dizziness (treatment-emergent AE)” value (bid 2: 150 mg bid 5/9 (n=6)) was 1 (16.7) n (%). For the same compound, the “Dyspepsia (treatment-emergent AE)” value (bid 2: 150 mg bid 5/9 (n=6)) was 1 (16.7) n (%), the “Dyspepsia (treatment-related AE)” value (bid 2: 150 mg bid 5/9 (n=6)) was 1 (16.7) n (%) and the “Dyspnea (treatment-emergent AE)” value (bid 2: 150 mg bid 5/9 (n=6)) was 2 (33.3) n (%). For the same compound, the “Edema peripheral (treatment-emergent AE)” value (bid 2: 150 mg bid 5/9 (n=6)) was 1 (16.7) n (%), the “Fall (treatment-emergent AE)” value (bid 2: 150 mg bid 5/9 (n=6)) was 1 (16.7) n (%) and the “Fatigue (treatment-emergent AE)” value (bid 2: 150 mg bid 5/9 (n=6)) was 5 (83.3) n (%). The “Fatigue (treatment-related AE)” value (bid 2: 150 mg bid 5/9 (n=6)) was 4 (66.7) n (%), the “Headache (treatment-emergent AE)” value (bid 2: 150 mg bid 5/9 (n=6)) was 1 (16.7) n (%) and the “Hypokalemia (treatment-emergent AE)” value (bid 2: 150 mg bid 5/9 (n=6)) was 1 (16.7) n (%). The “Insomnia (treatment-emergent AE)” value (bid 2: 150 mg bid 5/9 (n=6)) was 1 (16.7) n (%), the “Muscle spasms (treatment-emergent AE)” value (bid 2: 150 mg bid 5/9 (n=6)) was 0 n (%) and the “Myalgia (treatment-emergent AE)” value (bid 2: 150 mg bid 5/9 (n=6)) was 0 n (%). The “Myalgia (treatment-related AE)” value (bid 2: 150 mg bid 5/9 (n=6)) was 0 n (%), the “Nausea (treatment-emergent AE)” value (bid 2: 150 mg bid 5/9 (n=6)) was 3 (50.0) n (%) and the “Nausea (treatment-related AE)” value (bid 2: 150 mg bid 5/9 (n=6)) was 3 (50.0) n (%). For the same compound, the “Neutropenia (treatment-emergent AE)” value (bid 2: 150 mg bid 5/9 (n=6)) was 2 (33.3) n (%), the “Neutropenia (treatment-related AE)” value (bid 2: 150 mg bid 5/9 (n=6)) was 2 (33.3) n (%) and the “Pneumonia (treatment-emergent AE)” value (bid 2: 150 mg bid 5/9 (n=6)) was 0 n (%). For the same compound, the “Pyrexia (treatment-emergent AE)” value (bid 2: 150 mg bid 5/9 (n=6)) was 2 (33.3) n (%), the “Rash (treatment-emergent AE)” value (bid 2: 150 mg bid 5/9 (n=6)) was 0 n (%) and the “Thrombocytopenia (treatment-emergent AE)” value (bid 2: 150 mg bid 5/9 (n=6)) was 0 n (%). The “Thrombocytopenia (treatment-related AE)” value (bid 2: 150 mg bid 5/9 (n=6)) was 0 n (%), the “Urinary tract infection (treatment-emergent AE)” value (bid 2: 150 mg bid 5/9 (n=6)) was 1 (16.7) n (%) and the “Vomiting (treatment-emergent AE)” value (bid 2: 150 mg bid 5/9 (n=6)) was 2 (33.3) n (%). For the same compound, the “Vomiting (treatment-related AE)” value (bid 2: 150 mg bid 5/9 (n=6)) was 2 (33.3) n (%), the “Deaths attributed to disease progression and an SAE of treatment-unrelated grade 5 sepsis, patients” value (cohort qd 3.3) was “one” and the “AEs leading to dose interruptions, patients” value (human, in vivo) was 25 (40.3%) n (%). The “AEs leading to dose reductions, patients” value (human, in vivo) was 17 (27.4%) n (%), the “AEs leading to treatment discontinuation, patients” value (human, in vivo) was 4 (6.5%) n (%) and the “Abdominal pain (treatment-emergent AE)” value (human, in vivo) was 15 (24.2) n (%). The “Alanine aminotransferase increased” value (human, in vivo) was 8 (12.9) n (%), the “Anemia (treatment-emergent AE)” value (human, in vivo) was 16 (25.8) n (%) and the “Anemia (treatment-related AE)” value (human, in vivo) was 11 (17.7) n (%). For the same compound, the “Asthenia (treatment-emergent AE)” value (human, in vivo) was 10 (16.1) n (%), the “Back pain (treatment-emergent AE)” value (human, in vivo) was 13 (21.0) n (%) and the “Constipation (treatment-emergent AE)” value (human, in vivo) was 15 (24.2) n (%). The “Cough (treatment-emergent AE)” value (human, in vivo) was 9 (14.5) n (%), the “Decreased appetite (treatment-emergent AE)” value (human, in vivo) was 14 (22.6) n (%) and the “Decreased appetite (treatment-related AE)” value (human, in vivo) was 11 (17.7) n (%). The “Dehydration (treatment-related AE)” value (human, in vivo) was 11 (17.7) n (%), the “Dehydration leading to dose interruption, patients” value (human, in vivo) was 4 (6.5%) n (%) and the “Diarrhea leading to dose interruption, patients” value (human, in vivo) was 4 (6.5%) n (%). The “Dizziness (treatment-emergent AE)” value (human, in vivo) was 14 (22.6) n (%), the “Dyspepsia (treatment-emergent AE)” value (human, in vivo) was 8 (12.9) n (%) and the “Dyspnea (treatment-emergent AE)” value (human, in vivo) was 9 (14.5) n (%). The “Edema peripheral (treatment-emergent AE)” value (human, in vivo) was 16 (25.8) n (%), the “Fall (treatment-emergent AE)” value (human, in vivo) was 9 (14.5) n (%) and the “Fatigue leading to dose interruption, patients” value (human, in vivo) was 4 (6.5%) n (%). The “Headache (treatment-emergent AE)” value (human, in vivo) was 8 (12.9) n (%), the “Hypokalemia (treatment-emergent AE)” value (human, in vivo) was 11 (17.7) n (%) and the “Muscle spasms (treatment-emergent AE)” value (human, in vivo) was 8 (12.9) n (%). The “Myalgia (treatment-emergent AE)” value (human, in vivo) was 12 (19.4) n (%), the “Myalgia (treatment-related AE)” value (human, in vivo) was 9 (14.5) n (%) and the “Neutropenia (treatment-emergent AE)” value (human, in vivo) was 10 (16.1) n (%). For the same compound, the “Neutropenia (treatment-related AE)” value (human, in vivo) was 9 (14.5) n (%), the “Neutropenia leading to dose reduction, patients” value (human, in vivo) was 4 (6.5%) n (%) and the “Number of treatment-related serious AEs” value (human, in vivo) was 10. For the same compound, the “Patients with serious AEs” value (human, in vivo) was 25 (40.3%) n (%), the “Pyrexia (treatment-emergent AE)” value (human, in vivo) was 10 (16.1) n (%) and the “Thrombocytopenia (treatment-emergent AE)” value (human, in vivo) was 10 (16.1) n (%). For the same compound, the “Thrombocytopenia (treatment-related AE)” value (human, in vivo) was 10 (16.1) n (%), the “Thrombocytopenia leading to dose interruption, patients” value (human, in vivo) was 4 (6.5%) n (%) and the “Thrombocytopenia leading to dose reduction, patients” value (human, in vivo) was 5 (8.1%) n (%). For the same compound, the “Treatment-related SAE: anemia” value (human, in vivo) was 1 [1.6%] n [%], the “Treatment-related SAE: dehydration” value (human, in vivo) was 2 [3.2%] n [%] and the “Treatment-related SAE: febrile neutropenia” value (human, in vivo) was 1 [1.6%] n [%]. For the same compound, the “Urinary tract infection (treatment-emergent AE)” value (human, in vivo) was 9 (14.5) n (%), the “Vomiting (treatment-emergent AE)” value (human, in vivo) was 16 (25.8) n (%) and the “Vomiting (treatment-related AE)” value (human, in vivo) was 14 (22.6) n (%). For the same compound, the “Number of serious AEs (SAEs) reported” value (in vivo) was “Fifty”, the “Abdominal pain (treatment-emergent AE)” value (qd 1.1: 200 mg qd 5/9 (n=5)) was 1 (20.0) n (%) and the “Abdominal pain (treatment-related AE)” value (qd 1.1: 200 mg qd 5/9 (n=5)) was 0 n (%). For the same compound, the “Alanine aminotransferase increased” value (qd 1.1: 200 mg qd 5/9 (n=5)) was 2 (40.0) n (%), the “Anemia (treatment-emergent AE)” value (qd 1.1: 200 mg qd 5/9 (n=5)) was 0 n (%) and the “Anemia (treatment-related AE)” value (qd 1.1: 200 mg qd 5/9 (n=5)) was 0 n (%). The “Any AE (treatment-emergent)” value (qd 1.1: 200 mg qd 5/9 (n=5)) was 5 (100) n (%), the “Any grade ≥ 3 AE” value (qd 1.1: 200 mg qd 5/9 (n=5)) was 1 (20.0) n (%) and the “Any treatment-related AE” value (qd 1.1: 200 mg qd 5/9 (n=5)) was 5 (100) n (%). The “Any treatment-related grade ≥ 3 AE” value (qd 1.1: 200 mg qd 5/9 (n=5)) was 1 (20.0) n (%), the “Asthenia (treatment-emergent AE)” value (qd 1.1: 200 mg qd 5/9 (n=5)) was 2 (40.0) n (%) and the “Asthenia (treatment-related AE)” value (qd 1.1: 200 mg qd 5/9 (n=5)) was 2 (40.0) n (%). The “Back pain (treatment-emergent AE)” value (qd 1.1: 200 mg qd 5/9 (n=5)) was 0 n (%), the “Constipation (treatment-emergent AE)” value (qd 1.1: 200 mg qd 5/9 (n=5)) was 1 (20.0) n (%) and the “Constipation (treatment-related AE)” value (qd 1.1: 200 mg qd 5/9 (n=5)) was 1 (20.0) n (%). For the same compound, the “Cough (treatment-emergent AE)” value (qd 1.1: 200 mg qd 5/9 (n=5)) was 0 n (%), the “Decreased appetite (treatment-emergent AE)” value (qd 1.1: 200 mg qd 5/9 (n=5)) was 0 n (%) and the “Decreased appetite (treatment-related AE)” value (qd 1.1: 200 mg qd 5/9 (n=5)) was 0 n (%). The “Dehydration (treatment-emergent AE)” value (qd 1.1: 200 mg qd 5/9 (n=5)) was 0 n (%), the “Dehydration (treatment-related AE)” value (qd 1.1: 200 mg qd 5/9 (n=5)) was 0 n (%) and the “Diarrhea (treatment-emergent AE)” value (qd 1.1: 200 mg qd 5/9 (n=5)) was 1 (20.0) n (%). The “Diarrhea (treatment-related AE)” value (qd 1.1: 200 mg qd 5/9 (n=5)) was 1 (20.0) n (%).
